Measurements published in patent US20070054916A1, “Aryl nitrogen-containing bicyclic compounds and methods of use” (Amgen Inc., priority 2004, published 2007).

System: production of TNF by monocytes activated with bacterial lipopolysaccharide (LPS)
Assay: Lipopolysaccharide-activated monocyte TNF production assay
Type: cell-based
Conditions: Homo sapiens, read-out: IC50 values in the monocyte assay (LPS induced TNF release)
Description: Lipopolysaccharide-Activated Monocyte TNF Production Assay
Test compounds were evaluated in vitro for the ability to inhibit the production of TNF by monocytes activated with bacterial lipopolysaccharide (LPS). Fresh residual source leukocytes (a byproduct of plateletpheresis) were obtained from a local blood bank, and peripheral blood mononuclear cells (PBMCs) were isolated by density gradient centrifugation on Ficol-Paque Plus (Pharmacia). PBMCs were suspended at 2×10^6/ml in DMEM supplemented to contain 2% FCS, 10 mM, 0.3 mg/ml […], 100 U/ml penicillin G and […] streptomycin sulfate (complete media). Cells were plated into Falcon flat bottom, 96 well culture plates (200 μl/well) and cultured overnight at 37° C. and 6% CO2. Non-adherent cells were removed by washing with 200 μl/well of fresh medium. Wells containing adherent cells (˜70% monocytes) were replenished with 100 μl of fresh medium.
Preparation of Test Compound Stock Solutions
Test compounds were dissolved in […]. Compound stock solutions were prepared to an initial concentration of […]. Stocks were diluted initially to 20-200 μM in complete media. Nine two-fold serial dilutions of each compound were then prepared in complete medium.
Treatment of Cells with Test Compounds and Activation of TNF Production with Lipopolysaccharide
One hundred microliters of each test compound dilution were added to microtiter wells containing adherent monocytes and 100 μl complete medium. Monocytes were cultured with test compounds for 60 min at which time 25 μl of complete medium containing 30 ng/ml lipopolysaccharide from E. coli K532 were added to each well. Cells were cultured an additional 4 hrs. Culture supernatants were then removed and TNF presence in the supernatants was quantified using an ELISA.
Flat bottom, 96 well Corning High Binding ELISA plates were coated overnight (4° C.) with 150 μL/well of 3 μg/ml murine anti-human TNF-α MAb (R&D Systems #MAB210). Wells were then blocked for 1 hr at room temperature with 200 μL/well of CaCl2-free ELISA buffer supplemented to contain 20 mg/ml BSA (standard ELISA buffer: […], 150 mM NaCl, 2 mM CaCl2, 0.15 mM thimerosal, pH 7.4). Plates were washed and replenished with 100 μl of test supernatants (diluted 1:3) or standards. Standards consisted of eleven 1.5-fold serial dilutions from a stock of 1 ng/ml recombinant human TNF (R&D Systems). Plates were incubated at room temperature for 1 hr on orbital shaker (300 rpm), washed and replenished with 100 μl/well of 0.5 ug/ml goat anti-human TNF-α (R&D systems #AB-210-NA) biotinylated at a 4:1 ratio. Plates were incubated for 40 min, washed and replenished with 100 μl/well of alkaline phosphatase-conjugated streptavidin (Jackson ImmunoResearch #016-050-084) at 0.02 ug/ml. Plates were incubated 30 min, washed and replenished with 200 μl/well of 1 mg/ml of p-nitrophenyl phosphate. After 30 min, plates were read at 405 nm on a Vmax plate reader.
Standard curve data were fit to a second order polynomial and unknown TNF-α concentrations determined from their OD by solving this equation for concentration. TNF concentrations were then plotted vs. test compound concentration using a second order polynomial. This equation was then used to calculate the concentration of test compounds causing a 50% reduction in TNF production.

SMILES | IC50
CNc1ncc2cc(-c3cc(C(=O)Nc4cc(C(F)(F)F)ccc4F)ccc3C)ccc2n1 [Example 1, N-(2-fluoro-5-(trifluoromethyl)phenyl)-4-methyl-3-(2-(methylamino)quinazolin-6-yl)benzamide] | ≤ 25 µM
CNc1ncc2cc(-c3cc(C(=O)Nc4ccc(Cl)c(C(F)(F)F)c4C)ccc3C)ccc2n1 [Example 3, N-(4-chloro-2-methyl-3-(trifluoromethyl)phenyl)-4-methyl-3-(2-(methylamino)-quinazolinyl)benzamide] | ≤ 25 µM
Cc1ccc(C(=O)Nc2ccc(NC(=O)NCCN3CCOCC3)c(C(F)(F)F)c2)cc1-c1ccc2nc(N)ncc2c1 [Example 4] | ≤ 25 µM
CCN(CC)CCNC(=O)Nc1ccc(NC(=O)c2ccc(C)c(-c3ccc4nc(N)ncc4c3)c2)cc1C(F)(F)F [Example 5, 3-(2-amino-6-quinazolinyl)-N-(4-((((2-(diethylamino)ethyl)amino)carbonyl)amino)-3-(trifluoromethyl)phenyl)-4-methylbenzamide] | ≤ 25 µM
Cc1ccc(C(=O)Nc2cc(C(=O)NCCN3CCOCC3)cc(C(F)(F)F)c2)cc1-c1ccc2nc(N)ncc2c1 [Example 6] | ≤ 25 µM
CCN(CC)CCNC(=O)c1cc(NC(=O)c2ccc(C)c(-c3ccc4nc(N)ncc4c3)c2)cc(C(F)(F)F)c1 [Example 7] | ≤ 25 µM
Cc1ccc(C(=O)Nc2cc(C(C)(C)C)ccc2NC(=O)CN2CCOCC2)cc1-c1ccc2nc(N)ncc2c1 [Example 8] | ≤ 25 µM
CNc1ncc2cc(-c3ccc(F)c(C(=O)Nc4cc(C(F)(F)F)ccc4N(C)CCCN(C)C)c3)ccc2n1 [Example 9, N-(2-((3-(dimethylamino)propyl)(methyl)amino)-5-(trifluoromethyl)phenyl)-2-fluoro-5-(2-(methylamino)-6-quinazolinyl)benzamide] | ≤ 25 µM
CNc1ncc2cc(-c3cc(C(=O)Nc4cccc(C(F)(F)F)c4C)ccc3C)ccc2n1 [Example 11, 4-methyl-3-(2-(methylamino)-6-quinazolinyl)-N-(2-methyl-3-(trifluoromethyl)phenyl)benzamide] | ≤ 25 µM
CNc1ncc2cc(-c3cc(C(=O)Nc4ccc(Cl)c(C(F)(F)F)c4)ccc3C)ccc2n1 [Example 12, N-(4-chloro-3-(trifluoromethyl)phenyl)-4-methyl-3-(2-(methylamino)-6-quinazolinyl)benzamide] | ≤ 25 µM
CNc1ncc2cc(-c3cc(C(=O)Nc4cccc(C(F)(F)F)c4)ccc3C)ccc2n1 [Example 18, 4-methyl-3-(2-(methylamino)-6-quinazolinyl)-N-(3-(trifluoromethyl)phenyl)benzamide] | ≤ 25 µM
Cc1ccc(C(=O)Nc2cccc(C(F)(F)F)c2F)cc1-c1ccc2nc(N)ncc2c1 [Example 19, 3-(2-amino-6-quinazolinyl)-N-(2-fluoro-3-(trifluoromethyl)phenyl)-4-methylbenzamide] | ≤ 25 µM
Cc1ccc(C(=O)Nc2cccc(C(F)(F)F)c2)cc1-c1ccc2nc(NCCN3CCOCC3)ncc2c1 [Example 20, 4-methyl-3-(2-((2-(4-morpholinyl)ethyl)amino)-6-quinazolinyl)-N-(3-(trifluoromethyl)phenyl)benzamide] | ≤ 25 µM
Cc1ccc(C(=O)Nc2cccc(C(F)(F)F)c2F)cc1-c1ccc2nc(NCCCN3CCOCC3)ncc2c1 [Example 23, N-(2-fluoro-3-(trifluoromethyl)phenyl)-4-methyl-3-(2-((3-(4-morpholinyl)propyl)amino)-6-quinazolinyl) benzamide] | ≤ 25 µM
COCCNc1ncc2cc(-c3cc(C(=O)Nc4cccc(C(F)(F)F)c4F)ccc3C)ccc2n1 [Example 24, N-(2-fluoro-3-(trifluoromethyl)phenyl)-4-methyl-3-(2-((2-(methyloxy)ethyl)amino)-6-quinazolinyl) benzamide] | ≤ 25 µM
Cc1ccc(C(=O)Nc2cccc(C(F)(F)F)c2F)cc1-c1ccc2nc(NC3CCN(C)CC3)ncc2c1 [Example 25] | ≤ 25 µM
Cc1ccc(C(=O)Nc2cccc(C(F)(F)F)c2F)cc1-c1ccc2nc(NCCN3CCCC3)ncc2c1 [Example 26, N-(2-fluoro-3-(trifluoromethyl)phenyl)-4-methyl-3-(2-((2-(1-pyrrolidinyl)ethyl)amino)-6-quinazolinyl) benzamide] | ≤ 25 µM
Cc1ccc(C(=O)Nc2cccc(C(F)(F)F)c2C)cc1-c1ccc2nc(NCCN3CCOCC3)ncc2c1 [Example 28, 4-methyl-N-(2-methyl-3-(trifluoromethyl)phenyl)-3-(2-((2-(4-morpholinyl)ethyl)amino)-6-quinazolinyl) benzamide] | ≤ 25 µM
Cc1ccc(C(=O)Nc2cccc(C(F)(F)F)c2)cc1-c1ccc2nc(NC3CC3)ncc2c1 [Example 29, 3-(2-(cyclopropylamino)-6-quinazolinyl)-4-methyl-N-(3-(trifluoromethyl)phenyl)benzamide] | ≤ 25 µM
Cc1ccc(C(=O)Nc2cccc(C(F)(F)F)c2F)cc1-c1ccc2nc(Nc3ccc(N4CCN(C)CC4)cc3)ncc2c1 [Example 30, N-(2-fluoro-3-(trifluoromethyl)phenyl)-4-methyl-3-(2-((4-(4-methyl-1-piperazinyl)phenyl)amino)-6-quinazolinyl) benzamide] | ≤ 25 µM
Cc1ccc(C(=O)Nc2cccc(C(F)(F)F)c2F)cc1-c1ccc2nc(Nc3ccc(OCCCN4CCCCC4)cc3)ncc2c1 [Example 31, N-(2-fluoro-3-(trifluoromethyl)phenyl)-4-methyl-3-(2-((4-((3-(1-piperidinyl)propyl)oxy)phenyl)amino)-6-quinazotinyl) benzamide] | ≤ 25 µM
Cc1ccc(C(=O)Nc2cccc(C(F)(F)F)c2C)cc1-c1ccc2nc(NCCCN3CCOCC3)ncc2c1 [Example 32, 4-methyl-N-(2-methyl-3-(trifluoromethyl)phenyl)-3-(2-((3-(4-morpholinyl)propyl)amino)-6-quinazolinyl) benzamide] | ≤ 25 µM
Cc1ccc(C(=O)Nc2cccc(C(F)(F)F)c2C)cc1-c1ccc2nc(NCCN3CCCC3)ncc2c1 [Example 33, 4-methyl-N-(2-methyl-3-(trifluoromethyl)phenyl)-3-(2-((2-(1-pyrrolidinyl)ethyl)amino)-6-quinazolinyl) benzamide] | ≤ 25 µM
Cc1ccc(C(=O)Nc2cccc(C(F)(F)F)c2C)cc1-c1ccc2nc(NCCCN3CCCC3=O)ncc2c1 [Example 34, 4-methyl-N-(2-methyl-3-(trifluoromethyl)phenyl)-3-(2-((3-(2-oxo-1-pyrrolidinyl)propyl)amino)-6-quinazolinyl) benzamide] | ≤ 25 µM
CCN1CCC(CNc2ncc3cc(-c4cc(C(=O)Nc5cccc(C(F)(F)F)c5C)ccc4C)ccc3n2)CC1 [Example 35, 3-(2-(((1-ethyl-4-piperidinyl)methyl)amino)-6-quinazolinyl)-4-methyl-N-(2-methyl-3-(trifluoromethyl)phenyl)benzamide] | ≤ 25 µM
Cc1ccc(C(=O)Nc2cccc(C(F)(F)F)c2C)cc1-c1ccc2nc(NC3CCN(C)CC3)ncc2c1 [Example 36, 4-methyl-3-(2-((1-methyl-4-piperidinyl)amino)-6-quinazolinyl)-N-(2-methyl-3-(trifluoromethyl)phenyl)benzamide] | ≤ 25 µM
Cc1ccc(C(=O)Nc2cccc(C(F)(F)F)c2C)cc1-c1ccc2nc(NC3CC3)ncc2c1 [Example 37, 3-(2-(cyclopropylamino)-6-quinazolinyl)-4-methyl-N-(2-methyl-3-(trifluoromethyl)phenyl)benzamide] | ≤ 25 µM
CNc1ncc2cc(-c3cc(C(=O)Nc4cccc(C(F)(F)F)c4)c(F)cc3C)ccc2n1 [Example 38, 2-fluoro-4-methyl-5-(2-(methylamino)-6-quinazolinyl)-N-(3-(trifluoromethyl)phenyl)benzamide] | ≤ 25 µM
Cc1cc(F)c(C(=O)Nc2cccc(C(F)(F)F)c2)cc1-c1ccc2nc(NC3CC3)ncc2c1 [Example 39, 5-(2-(cyclopropylamino)-6-quinazolinyl)-2-fluoro-4-methyl-N-(3-(trifluoromethyl)phenyl)benzamide] | ≤ 25 µM
Cc1ccc(C(=O)NC2CC2)cc1-c1ccc2nc(N)ncc2c1 [Example 40, 3-(2-amino-6-quinazolinyl)-N-cyclopropyl-4-methylbenzamide] | ≤ 25 µM
